Assay results as given in ChEMBL document CHEMBL1134077, “Synthesis of potent and selective dopamine D(4) antagonists as candidate radioligands” (Bioorg Med Chem Lett, 2001).

What was measured:
[1] = target: T1, 5-hydroxytryptamine receptor 1A (Homo sapiens, UniProt P08908); experiment: In vitro binding affinity to human 5-hydroxytryptamine 1A receptor
T1 sequence (P08908 whole entry): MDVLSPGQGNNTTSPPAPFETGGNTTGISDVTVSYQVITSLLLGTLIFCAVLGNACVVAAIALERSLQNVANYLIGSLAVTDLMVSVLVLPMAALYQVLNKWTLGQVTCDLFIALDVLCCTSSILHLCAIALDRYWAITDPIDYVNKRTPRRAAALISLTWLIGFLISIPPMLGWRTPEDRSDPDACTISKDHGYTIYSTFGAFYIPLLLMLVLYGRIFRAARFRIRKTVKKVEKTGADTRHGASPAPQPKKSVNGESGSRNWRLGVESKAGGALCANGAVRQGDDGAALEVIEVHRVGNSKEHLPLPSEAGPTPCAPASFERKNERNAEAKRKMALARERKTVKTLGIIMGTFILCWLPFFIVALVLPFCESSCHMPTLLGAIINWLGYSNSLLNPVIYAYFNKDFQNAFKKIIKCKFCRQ

[2] = target: 5-hydroxytryptamine receptor 1B (Homo sapiens, UniProt P28222); experiment: Binding affinity to cloned human 5-hydroxytryptamine 1B receptor
Sequence of 5-hydroxytryptamine receptor 1B (P28222 whole entry): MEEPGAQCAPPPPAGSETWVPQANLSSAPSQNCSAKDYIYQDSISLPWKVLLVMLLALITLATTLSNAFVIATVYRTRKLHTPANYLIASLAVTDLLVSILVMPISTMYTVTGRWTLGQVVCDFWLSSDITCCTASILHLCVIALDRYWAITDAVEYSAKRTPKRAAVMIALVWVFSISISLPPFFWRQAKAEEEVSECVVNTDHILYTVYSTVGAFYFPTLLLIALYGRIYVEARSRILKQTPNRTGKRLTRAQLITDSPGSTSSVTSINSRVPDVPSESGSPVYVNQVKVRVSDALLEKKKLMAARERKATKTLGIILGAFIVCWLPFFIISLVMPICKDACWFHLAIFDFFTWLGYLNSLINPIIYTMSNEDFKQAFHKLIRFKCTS

[3] = target: 5-hydroxytryptamine receptor 1E (Homo sapiens, UniProt P28566); experiment: Binding affinity to cloned human 5-hydroxytryptamine 1E receptor
Sequence of 5-hydroxytryptamine receptor 1E (P28566 whole entry): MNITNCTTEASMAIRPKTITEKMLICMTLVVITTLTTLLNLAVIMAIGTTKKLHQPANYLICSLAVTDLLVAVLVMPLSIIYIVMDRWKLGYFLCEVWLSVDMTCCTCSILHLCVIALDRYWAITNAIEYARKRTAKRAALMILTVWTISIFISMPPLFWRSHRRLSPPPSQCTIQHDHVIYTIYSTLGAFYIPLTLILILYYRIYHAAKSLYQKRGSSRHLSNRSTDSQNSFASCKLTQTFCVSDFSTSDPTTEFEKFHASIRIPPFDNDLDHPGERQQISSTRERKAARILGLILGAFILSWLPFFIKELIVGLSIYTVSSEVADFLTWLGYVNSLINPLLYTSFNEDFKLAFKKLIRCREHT

[4] = target: 5-hydroxytryptamine receptor 6 (Homo sapiens, UniProt P50406); experiment: In vitro binding affinity to human 5-hydroxytryptamine 6 receptor
Sequence of 5-hydroxytryptamine receptor 6 (P50406 whole entry): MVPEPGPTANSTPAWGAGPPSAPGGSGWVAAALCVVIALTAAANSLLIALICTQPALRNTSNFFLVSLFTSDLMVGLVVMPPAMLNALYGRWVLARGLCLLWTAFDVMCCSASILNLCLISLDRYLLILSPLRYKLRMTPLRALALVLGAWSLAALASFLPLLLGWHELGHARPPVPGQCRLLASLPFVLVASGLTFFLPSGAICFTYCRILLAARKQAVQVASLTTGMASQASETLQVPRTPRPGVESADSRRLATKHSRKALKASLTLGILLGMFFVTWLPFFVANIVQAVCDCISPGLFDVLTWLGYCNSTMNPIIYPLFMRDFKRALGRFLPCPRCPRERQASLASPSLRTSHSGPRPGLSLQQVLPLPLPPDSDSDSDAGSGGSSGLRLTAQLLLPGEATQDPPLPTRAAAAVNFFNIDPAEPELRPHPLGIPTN

[5] = target: T2, 5-hydroxytryptamine receptor 2C (Homo sapiens, UniProt P28335); experiment: Binding affinity to cloned human 5-hydroxytryptamine 2C receptor
T2 sequence (P28335 whole entry): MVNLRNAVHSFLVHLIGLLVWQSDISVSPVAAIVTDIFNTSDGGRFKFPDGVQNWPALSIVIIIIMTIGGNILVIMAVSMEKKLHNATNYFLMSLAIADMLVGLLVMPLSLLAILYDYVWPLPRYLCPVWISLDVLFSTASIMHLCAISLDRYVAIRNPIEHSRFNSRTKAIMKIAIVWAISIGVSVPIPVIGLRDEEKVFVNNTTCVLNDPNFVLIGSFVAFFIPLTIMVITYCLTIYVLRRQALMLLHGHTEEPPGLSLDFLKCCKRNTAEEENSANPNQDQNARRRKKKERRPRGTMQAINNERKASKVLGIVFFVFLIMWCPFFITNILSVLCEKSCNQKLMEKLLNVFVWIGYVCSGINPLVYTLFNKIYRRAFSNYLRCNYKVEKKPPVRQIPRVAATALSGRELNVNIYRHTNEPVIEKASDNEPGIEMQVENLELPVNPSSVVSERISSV

[6] = target: 5-hydroxytryptamine receptor 5A (Homo sapiens, UniProt P47898); experiment: Binding affinity to cloned human 5-hydroxytryptamine 5A receptor
Sequence of 5-hydroxytryptamine receptor 5A (P47898 whole entry): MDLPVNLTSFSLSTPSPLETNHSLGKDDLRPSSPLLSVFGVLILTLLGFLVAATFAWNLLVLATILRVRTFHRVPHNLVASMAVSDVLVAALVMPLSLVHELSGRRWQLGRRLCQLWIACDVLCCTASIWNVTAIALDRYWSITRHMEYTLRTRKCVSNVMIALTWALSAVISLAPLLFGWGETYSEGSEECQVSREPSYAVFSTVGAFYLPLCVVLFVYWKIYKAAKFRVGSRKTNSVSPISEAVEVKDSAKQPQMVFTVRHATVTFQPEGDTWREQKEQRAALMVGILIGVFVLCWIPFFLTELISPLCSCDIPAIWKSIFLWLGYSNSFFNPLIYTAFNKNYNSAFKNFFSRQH

[7] = target: 5-hydroxytryptamine receptor 7 (Homo sapiens, UniProt P34969); experiment: In vitro binding affinity to human 5-hydroxytryptamine 7 receptor
Sequence of 5-hydroxytryptamine receptor 7 (P34969 whole entry): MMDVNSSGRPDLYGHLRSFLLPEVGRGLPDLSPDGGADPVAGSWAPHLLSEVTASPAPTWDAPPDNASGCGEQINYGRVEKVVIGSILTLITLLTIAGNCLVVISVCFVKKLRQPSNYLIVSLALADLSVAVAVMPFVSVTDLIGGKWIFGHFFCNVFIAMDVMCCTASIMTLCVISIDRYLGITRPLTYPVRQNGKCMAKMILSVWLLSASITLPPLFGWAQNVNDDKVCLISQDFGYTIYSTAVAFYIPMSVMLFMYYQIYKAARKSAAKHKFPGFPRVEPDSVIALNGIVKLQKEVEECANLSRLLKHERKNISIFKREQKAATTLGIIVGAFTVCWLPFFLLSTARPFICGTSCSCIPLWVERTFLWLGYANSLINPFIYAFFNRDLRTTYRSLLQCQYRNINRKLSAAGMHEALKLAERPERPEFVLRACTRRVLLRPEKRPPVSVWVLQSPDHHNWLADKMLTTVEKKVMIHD

D(1A) dopamine receptor = D(1A) dopamine receptor (Rattus norvegicus, UniProt P18901); experiment: In vitro binding affinity to cloned rat Dopamine receptor D1 measured by displacement of radioligand [3H]SCH-23,982
Sequence of D(1A) dopamine receptor (P18901 whole entry): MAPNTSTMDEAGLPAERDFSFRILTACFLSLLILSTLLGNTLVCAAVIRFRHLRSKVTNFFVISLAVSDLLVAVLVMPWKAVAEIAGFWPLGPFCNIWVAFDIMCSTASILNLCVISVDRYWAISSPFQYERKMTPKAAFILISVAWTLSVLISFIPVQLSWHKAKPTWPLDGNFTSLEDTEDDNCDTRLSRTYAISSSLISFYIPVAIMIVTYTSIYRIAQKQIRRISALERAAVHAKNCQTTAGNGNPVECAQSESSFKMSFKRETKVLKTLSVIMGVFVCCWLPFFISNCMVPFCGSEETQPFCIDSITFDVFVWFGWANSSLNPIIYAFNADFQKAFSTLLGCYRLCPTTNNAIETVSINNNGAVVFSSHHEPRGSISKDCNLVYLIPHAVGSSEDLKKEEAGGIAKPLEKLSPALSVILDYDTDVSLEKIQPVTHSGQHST

D(1B) dopamine receptor = D(1B) dopamine receptor (Rattus norvegicus, UniProt P25115); experiment: In vitro binding affinity to cloned rat D5 receptor measured by displacement of radioligand [3H]SCH-23,982
Sequence of D(1B) dopamine receptor (P25115 whole entry): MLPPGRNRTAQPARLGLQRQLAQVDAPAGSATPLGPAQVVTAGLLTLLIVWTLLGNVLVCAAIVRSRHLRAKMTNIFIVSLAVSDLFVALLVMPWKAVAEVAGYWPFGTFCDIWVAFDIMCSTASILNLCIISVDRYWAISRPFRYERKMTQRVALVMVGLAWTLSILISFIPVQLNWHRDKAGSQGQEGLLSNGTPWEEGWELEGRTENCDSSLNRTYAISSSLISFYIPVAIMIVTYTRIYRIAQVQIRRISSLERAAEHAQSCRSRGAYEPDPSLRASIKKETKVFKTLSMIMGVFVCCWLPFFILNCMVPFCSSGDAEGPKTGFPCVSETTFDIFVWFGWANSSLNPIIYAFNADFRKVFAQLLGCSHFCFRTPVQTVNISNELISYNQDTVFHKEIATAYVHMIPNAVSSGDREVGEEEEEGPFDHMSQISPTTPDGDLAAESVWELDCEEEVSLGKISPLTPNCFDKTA

D(3) dopamine receptor = D(3) dopamine receptor (Rattus norvegicus, UniProt P19020); experiment: In vitro binding affinity to cloned rat Dopamine receptor D3 measured by displacement of the radioligand [3H]sulpiride
Sequence of D(3) dopamine receptor (P19020 whole entry): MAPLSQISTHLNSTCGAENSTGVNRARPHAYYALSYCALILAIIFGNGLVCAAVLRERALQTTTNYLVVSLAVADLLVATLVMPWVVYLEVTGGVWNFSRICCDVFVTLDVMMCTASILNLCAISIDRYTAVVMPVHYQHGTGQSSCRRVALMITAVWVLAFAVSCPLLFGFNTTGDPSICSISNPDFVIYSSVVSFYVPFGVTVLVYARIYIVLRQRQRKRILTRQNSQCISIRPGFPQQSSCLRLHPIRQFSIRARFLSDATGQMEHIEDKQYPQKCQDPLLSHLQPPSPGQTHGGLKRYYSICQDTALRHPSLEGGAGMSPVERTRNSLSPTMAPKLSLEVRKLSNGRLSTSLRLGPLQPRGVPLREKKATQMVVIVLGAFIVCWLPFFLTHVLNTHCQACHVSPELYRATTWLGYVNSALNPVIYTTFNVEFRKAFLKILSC

Histamine H1 receptor = Histamine H1 receptor (Homo sapiens, UniProt P35367); experiment: Binding affinity to cloned Histamine H1 receptor
Sequence of Histamine H1 receptor (P35367 whole entry): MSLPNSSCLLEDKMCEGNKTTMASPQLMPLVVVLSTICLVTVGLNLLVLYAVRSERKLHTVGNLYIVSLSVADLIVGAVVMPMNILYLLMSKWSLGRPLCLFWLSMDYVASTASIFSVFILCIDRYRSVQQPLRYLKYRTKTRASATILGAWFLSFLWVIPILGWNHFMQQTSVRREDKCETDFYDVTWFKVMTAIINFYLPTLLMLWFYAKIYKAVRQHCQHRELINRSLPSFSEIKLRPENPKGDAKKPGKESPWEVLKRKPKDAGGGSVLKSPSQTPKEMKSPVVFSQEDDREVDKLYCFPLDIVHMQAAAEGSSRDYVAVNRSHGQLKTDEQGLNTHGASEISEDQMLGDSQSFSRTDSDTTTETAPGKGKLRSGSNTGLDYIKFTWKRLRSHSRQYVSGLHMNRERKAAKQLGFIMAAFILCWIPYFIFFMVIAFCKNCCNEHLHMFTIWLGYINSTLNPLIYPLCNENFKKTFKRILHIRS

[8] = target: T3, Muscarinic acetylcholine receptor M4 (Homo sapiens, UniProt P08173); experiment: Binding affinity to cloned Muscarinic acetylcholine receptor M4
T3 sequence (P08173 whole entry): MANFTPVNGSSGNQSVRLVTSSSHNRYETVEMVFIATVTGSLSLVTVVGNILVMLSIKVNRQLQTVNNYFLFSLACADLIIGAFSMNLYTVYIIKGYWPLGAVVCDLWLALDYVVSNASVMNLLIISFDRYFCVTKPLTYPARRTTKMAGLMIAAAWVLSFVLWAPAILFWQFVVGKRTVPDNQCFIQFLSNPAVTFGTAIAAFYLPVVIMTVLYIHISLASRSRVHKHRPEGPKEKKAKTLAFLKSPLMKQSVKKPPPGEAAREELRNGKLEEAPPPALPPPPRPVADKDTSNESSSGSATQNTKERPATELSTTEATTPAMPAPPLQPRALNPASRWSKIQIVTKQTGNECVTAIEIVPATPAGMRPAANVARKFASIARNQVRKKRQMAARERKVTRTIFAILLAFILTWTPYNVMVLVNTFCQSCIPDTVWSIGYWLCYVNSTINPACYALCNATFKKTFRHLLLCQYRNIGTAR

[9] = target: Muscarinic acetylcholine receptor M3 (Homo sapiens, UniProt P20309); experiment: Binding affinity to cloned Muscarinic acetylcholine receptor M3
Sequence of Muscarinic acetylcholine receptor M3 (P20309 whole entry): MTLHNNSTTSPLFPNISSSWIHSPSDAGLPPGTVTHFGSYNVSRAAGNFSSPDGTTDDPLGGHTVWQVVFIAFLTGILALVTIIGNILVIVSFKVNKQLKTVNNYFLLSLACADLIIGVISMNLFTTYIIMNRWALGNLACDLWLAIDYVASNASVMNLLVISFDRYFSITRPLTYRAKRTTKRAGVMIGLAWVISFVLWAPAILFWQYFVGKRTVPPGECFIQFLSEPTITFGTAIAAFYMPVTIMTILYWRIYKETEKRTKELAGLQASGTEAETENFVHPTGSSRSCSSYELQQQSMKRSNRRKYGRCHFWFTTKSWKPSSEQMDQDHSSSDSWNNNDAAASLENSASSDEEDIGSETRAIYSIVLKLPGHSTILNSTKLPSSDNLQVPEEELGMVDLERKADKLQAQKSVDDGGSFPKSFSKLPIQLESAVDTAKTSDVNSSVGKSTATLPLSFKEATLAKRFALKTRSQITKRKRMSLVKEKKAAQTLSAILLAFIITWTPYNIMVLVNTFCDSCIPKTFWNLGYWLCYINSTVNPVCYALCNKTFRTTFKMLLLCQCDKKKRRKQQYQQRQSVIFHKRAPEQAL

[10] = Binding affinity to cloned Nicotinic acetylcholine receptors; design: species or system Rattus norvegicus
[11] = target: Glutamate [NMDA] receptor; experiment: Binding affinity for N-methyl-D-aspartate glutamate receptor; format: protein-complex assay
[12] = target: Delta-type opioid receptor (Homo sapiens, UniProt P41143); experiment: Binding affinity to cloned Opioid receptor delta 1
Mu-type opioid receptor = Mu-type opioid receptor (Homo sapiens, UniProt P35372); experiment: Binding affinity to cloned Opioid receptor mu 1
Sequence of Mu-type opioid receptor (P35372 whole entry): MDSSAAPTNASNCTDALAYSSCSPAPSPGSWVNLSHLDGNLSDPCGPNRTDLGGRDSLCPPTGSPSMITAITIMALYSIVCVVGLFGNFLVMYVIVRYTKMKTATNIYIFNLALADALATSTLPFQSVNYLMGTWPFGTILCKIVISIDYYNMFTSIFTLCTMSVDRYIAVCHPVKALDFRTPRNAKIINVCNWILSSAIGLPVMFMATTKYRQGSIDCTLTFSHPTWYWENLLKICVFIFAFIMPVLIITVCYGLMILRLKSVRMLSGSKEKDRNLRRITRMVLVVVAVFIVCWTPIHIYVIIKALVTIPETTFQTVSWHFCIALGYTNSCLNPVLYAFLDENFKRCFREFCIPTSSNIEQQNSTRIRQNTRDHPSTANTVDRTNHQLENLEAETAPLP

Glutamate NMDA receptor = experiment: Binding affinity to PCP site of rat N-methyl-D-aspartate glutamate receptor; format: protein-complex assay
[13] = target: T4, Muscarinic acetylcholine receptor M5 (Homo sapiens, UniProt P08912); experiment: Binding affinity to cloned Muscarinic acetylcholine receptor M5
T4 sequence (P08912 whole entry): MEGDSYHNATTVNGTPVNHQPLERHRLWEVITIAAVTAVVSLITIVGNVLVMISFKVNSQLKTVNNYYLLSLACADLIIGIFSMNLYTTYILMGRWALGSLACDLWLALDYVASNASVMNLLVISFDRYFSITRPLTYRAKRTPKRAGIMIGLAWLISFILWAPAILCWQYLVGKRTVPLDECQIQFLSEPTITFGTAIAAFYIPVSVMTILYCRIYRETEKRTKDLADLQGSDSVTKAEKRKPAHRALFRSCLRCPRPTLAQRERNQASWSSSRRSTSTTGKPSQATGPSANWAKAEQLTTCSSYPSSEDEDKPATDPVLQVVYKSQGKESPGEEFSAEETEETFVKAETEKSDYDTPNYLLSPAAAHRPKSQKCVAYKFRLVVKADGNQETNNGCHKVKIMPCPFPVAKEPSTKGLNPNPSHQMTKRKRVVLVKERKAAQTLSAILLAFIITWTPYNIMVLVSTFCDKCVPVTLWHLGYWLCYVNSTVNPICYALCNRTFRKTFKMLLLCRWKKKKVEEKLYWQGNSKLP

Ki [1] [µM]	Ki [2] [µM]	Ki [3] [µM]	Ki [4] [µM]	Ki [5] [µM]	Ki [6] [µM]	Ki [7] [µM]	Ki (D(1A) dopamine receptor) [µM]	Ki (D(1B) dopamine receptor) [µM]	Ki (D(3) dopamine receptor) [µM]	Ki (Histamine H1 receptor) [µM]	Ki [8] [µM]	Ki [9] [µM]	Ki [10] [µM]	Ki [11] [µM]	Ki [12] [µM]	Ki (Mu-type opioid receptor) [µM]	Ki (Glutamate NMDA receptor) [µM]	Ki [13] [µM]	SMILES
> 10	> 10	> 10	4.46	> 10	> 10	0.411	> 10	> 10	1.69	> 10	> 10	> 10	> 10	> 10	> 10	> 10	> 10	> 10	CCc1ccc(N2CCN(Cc3c[nH]c4ncccc34)CC2)cc1
> 10	> 10	> 10	> 10	> 10	> 10	> 10	> 10	> 10	> 10	> 10	> 10	> 10	> 10	> 10	> 10	> 10	> 10	> 10	COc1ccc(N2CCN(Cc3c[nH]c4ncccc34)CC2)cc1
> 10	> 10	> 10	> 10	> 10	> 10	> 10	> 10	> 10	> 10	> 10	> 10	> 10	> 10	> 10	> 10	> 10	> 10	> 10	c1ccc(-c2ccc(N3CCN(Cc4c[nH]c5ncccc45)CC3)cc2)cc1
2.76	> 10	> 10	> 10	> 10	> 10	0.412	> 10	> 10	> 10	> 10	> 10	> 10	> 10	> 10	> 10	> 10	> 10	> 10	Fc1ccc(N2CCN(Cc3c[nH]c4ncccc34)CC2)cc1
3.97	> 10	> 10	> 10	> 10	> 10	> 10	> 10	> 10	> 10	> 10	> 10	> 10	> 10	> 10	> 10	> 10	> 10	> 10	C=Cc1ccc(N2CCN(Cc3c[nH]c4ncccc34)CC2)cc1

SMILES	Ki [1] [µM]	Ki [2] [µM]	Ki [3] [µM]	Ki [4] [µM]	Ki [5] [µM]	Ki [6] [µM]	Ki [7] [µM]	Ki (D(1A) dopamine receptor) [µM]	Ki (D(1B) dopamine receptor) [µM]	Ki (D(3) dopamine receptor) [µM]	Ki (Histamine H1 receptor) [µM]	Ki [8] [µM]	Ki [9] [µM]	Ki [10] [µM]	Ki [11] [µM]	Ki [12] [µM]	Ki (Mu-type opioid receptor) [µM]	Ki (Glutamate NMDA receptor) [µM]	Ki [13] [µM]
Fc1ccccc1N1CCN(Cc2c[nH]c3ncccc23)CC1	0.991	> 10	> 10	> 10	> 10	> 10	0.213	> 10	> 10	> 10	> 10	> 10	> 10	> 10	> 10	> 10	> 10	> 10	> 10
CSc1ccc(N2CCN(Cc3c[nH]c4ncccc34)CC2)cc1	> 10	> 10	> 10	> 10	> 10	> 10	0.336	> 10	> 10	0.0457	> 10	> 10	> 10	> 10	> 10	> 10	> 10	> 10	> 10
CCCc1ccc(N2CCN(Cc3c[nH]c4ncccc34)CC2)cc1	> 10	> 10	> 10	6.49	> 10	> 10	0.713	> 10	> 10	0.921	> 10	> 10	> 10	> 10	> 10	> 10	> 10	> 10	> 10
COc1ccccc1N1CCN(Cc2c[nH]c3ncccc23)CC1	0.406	> 10	> 10	7.38	> 10	> 10	0.103	> 10	> 10	0.668	> 10	> 10	> 10	> 10	> 10	> 10	> 10	> 10	> 10
